ChEMBL document CHEMBL1221352, “Synthesis and biological activity of flavanone derivatives” (Bioorg Med Chem Lett, 2010)

Experiments:
KB = test: Antitumor activity against human KB cells; type: functional; parameters: concentration or dose not given beside the values
HL-60 = test: Antitumor activity against human HL60 cells; type: functional; parameters: concentration or dose not given beside the values
[1] = Antivegetative activity against rat VSMC; type: functional, cell-based
HUVEC = test: Cytoprotectant activity against H2O2-induced injury in HUVEC cells; type: functional, cell-based, Homo sapiens
Bel-7402 = test: Antitumor activity against human Bel7402 cells; type: functional; parameters: concentration or dose not given beside the values
[2] = Inhibition of protein tyrosin kinase
BGC-823 = test: Antitumor activity against human BGC823 cells; type: functional; parameters: concentration or dose not given beside the values
[3] = Homo sapiens, HUVEC, read-out: EC50

IC50 [1] | IC50 [2] | IC50 ([2]; read-out: IC50) | IC50 ([1]; read-out: IC50) | Structure (SMILES) | Activity (KB) | Activity (HL-60) | EC50 (HUVEC; [3]) | Activity (Bel-7402) | Activity (BGC-823) | EC50 (HUVEC; huvec)
Not Active | Not Active | – | – | Cc1c(O)c(C)c2c(c1O)C(=O)CC(c1c[nH]c3ccccc13)O2 (centres undefined) | 10.47% | 11.39% | > 10 µM | 6.45% | 1.67% | –
Not Active | – | > 200 µM | – | Cc1c(O)c(C)c2c(c1O)C(=O)CC(c1ccc(O)cc1)O2 (centres undefined) | -7.21% | -3.37% | > 20 µM | -6.53% | -23.52% | –
– | – | > 50 µM | > 20 µM | Cc1c(O)c(C)c2c(c1O)C(=O)CC(c1ccccc1Cl)O2 (centres undefined) | 28.63% | 2.94% | > 20 µM | 18.7% | 36.98% | –
Not Active | – | > 100 µM | – | COc1ccccc1C1CC(=O)c2c(O)c(C)c(O)c(C)c2O1 (centres undefined) | – | – | > 20 µM | – | – | –
– | Not Active | – | 6.7 µM | Cc1c(O)c(C)c2c(c1O)C(=O)CC(c1ccco1)O2 (centres undefined) | -26.34% | 12.96% | > 20 µM | 3.27% | -9.68% | –
– | – | – | > 100 µM | Cc1c(O)c(C)c2c(c1O)C(=O)C[C@@H](c1ccccc1)O2 [DEMETHOXYMATTEUCINOL] | 3.64% | – | – | 2.63% | 13.51% | Not Active
– | – | – | 1.48 µM | COc1ccc2cc1Oc1ccc(cc1)C[C@H]1c3cc(c(OC)cc3CCN1C)Oc1c(OC)c(OC)cc3c1[C@H](C2)N(C)CC3 [FANCHININ] | – | – | – | – | – | –

The next lines start with the compound.

Structure (SMILES) | IC50 [1] | IC50 [2] | IC50 ([2]; read-out: IC50) | IC50 ([1]; read-out: IC50) | Activity (KB) | Activity (HL-60) | EC50 (HUVEC; [3]) | Activity (Bel-7402) | Activity (BGC-823) | EC50 (HUVEC; huvec)
Cc1c(O)c(C)c2c(c1O)C(=O)CC(c1ccccc1O)O2 (centres undefined) | Not Active | – | 55 µM | – | 44.54% | -6.47% | > 20 µM | -1.8% | -6.69% | –
Cc1c(O)c(C)c2c(c1O)C(=O)CC(c1cccc(O)c1)O2 (centres undefined) | Not Active | – | 51 µM | – | 28.66% | -4.04% | > 20 µM | -5.48% | -7.6% | –
Cc1c(O)c(C)c2c(c1O)C(=O)CC(c1ccc(Cl)cc1)O2 (centres undefined) | Not Active | Not Active | – | – | 15.89% | 7.65% | > 50 µM | -7.1% | -22.45% | –
Cc1c(O)c(C)c2c(c1O)C(=O)CC(c1ccc([N+](=O)[O-])cc1)O2 (centres undefined) | Not Active | Not Active | – | – | -9.11% | -0.46% | > 20 µM | 2.05% | -7.41% | –
Cc1c(O)c(C)c2c(c1O)C(=O)CC(c1ccccc1[N+](=O)[O-])O2 (centres undefined) | – | – | > 50 µM | 9.9 µM | 29.04% | -6.16% | > 5 µM | 27.18% | 52% | –
COc1ccc(C2CC(=O)c3c(O)c(C)c(O)c(C)c3O2)cc1 (centres undefined) | – | – | > 100 µM | > 100 µM | -11.99% | 8.52% | – | 15.15% | -28.89% | Not Active
COc1ccc(C2CC(=O)c3c(O)c(C)c(O)c(C)c3O2)c(OC)c1 (centres undefined) | Not Active | Not Active | – | – | – | – | – | – | – | Not Active
COc1cc(O)ccc1C1CC(=O)c2c(O)c(C)c(O)c(C)c2O1 (centres undefined) | – | – | > 200 µM | > 100 µM | -18.83% | -1.29% | > 20 µM | 2.54% | 4.85% | –
Cc1c(O)c(C)c2c(c1O)C(=O)CC(c1ccsc1)O2 (centres undefined) | Not Active | Not Active | – | – | 16.07% | 10.82% | > 50 µM | 11.59% | 50.71% | –
Cc1c(O)c(C)c2c(c1O)C(=O)CC(c1ccc(O)c(O)c1)O2 (centres undefined) [CYRTOMINETIN] | Not Active | – | > 50 µM | – | 45.3% | -4.85% | > 20 µM | -7.68% | -19.81% | –
O=c1c(-c2ccc(O)cc2)coc2cc(O)cc(O)c12 [GENISTEIN] | – | – | 13.6 µM | – | – | – | – | – | – | –
